{
  "source": "patent US4988735A",
  "about": "“Ethylene diamine active cardiovascular therapy” (Simes, priority 1987, dated 1991)",
  "key": {"vascular smooth muscle": {"tested_on": "vascular smooth muscle", "settings": "according to data in European Patent No. 41,757; cited from earlier work"}, "systemic hemodynamics": {"tested_on": "systemic hemodynamics", "assay": "Effects on systemic hemodynamics in dogs anaesthetized with pentobarbital (i.v. bolus)", "format": "in vivo, dog", "settings": "for Heart rate: average ± SD, basal: Compound II 167±15, Compound A 178±11; for Heart index: basal: Compound II 1.547±0.147, Compound A 1.820±0.311; for Total peripheral resistances: basal: Compound II 78.497±8.587 (** p<0.01), Compound A 63.985±5.037; for Arterial pressure, minimum: basal: Compound II 101±5 (** p<0.01), Compound A 97±11; for Arterial pressure, medium: basal: Compound II 117±7 (** p<0.01), Compound A 112±12; for Maximum ejection rate: basal: Compound II 126.79±14.41 (* p<0.05), Compound A 138.59±21.74; for Arterial pressure, maximum: basal: Compound II 149±11 (* p<0.05), Compound A 143±14", "description": "(§1) Catheters for detection of arterial pressure and flow electromagnetic transducers for measuring heart flow (heart index) and coronary flow were inserted in dogs anaesthetized with pentobarbital. The resistances were calculated from the pressure/flow ratio."}, "[1]": {"tested_on": "serotonin-induced spasm of mesenteric artery", "assay": "Antagonism towards vascular spasms induced by serotonin, mesenteric artery strips", "format": "cell-based", "settings": "Krebs solution 37 °C, fiduciary limits 0.15-0.31", "description": "(§2) (a) Antagonism towards vascular spasms induced by serotonin. Vascular strips of mesenteric artery and rabbit aorta were put into baths for isolated organ containing Krebs solutions at 37° C. and aerated with a mixture of oxygen and carbon dioxide 95:5.\n(§3) The addition of serotonin to the bath causes a spasm which is detected by a strength transducer.\n(§4) The antagonistic activity of compound II, evaluated as inhibiting concentration (IC50), gave the following results: […]"}, "serotonin": {"tested_on": "serotonin", "assay": "Specific antagonism of serotonin effects on blood platelets and vessels (general statement)", "source_text": "Evaluation of specific antagonistic activity to serotonin (5TH) effects"}, "coronary hemodynamics": {"tested_on": "coronary hemodynamics", "assay": "Effects on coronary hemodynamics in dogs anaesthetized with pentobarbital (i.v. bolus)", "format": "in vivo, dog", "description": "as §1"}, "[2]": {"tested_on": "serotonin-induced spasm of rabbit aorta", "assay": "Antagonism towards vascular spasms induced by serotonin, aorta strips", "format": "cell-based", "settings": "Oryctolagus cuniculus, Krebs solution 37 °C, fiduciary limits 0.05-0.56", "description": "as §2, §3, §4"}, "[3]": {"tested_on": "smooth muscle cells isolated from rat aorta", "assay": "Inhibition of arterial smooth muscle cell proliferation", "format": "cell-based", "description": "A culture of smooth muscle cells was isolated by rat aorta incubated in the presence of the tested Compounds II, A, B, C and D for 24, 48 and 72 hours in a minimal essential medium added with bovine fetal serum: at the above intervals the number of cells in the culture was counted by a hemocytometer and compared with the number of cells in a control culture."}, "[4]": {"tested_on": "serotonin-induced shape change of rat blood platelets", "assay": "Change of the shape of blood platelets induced by serotonin", "format": "cell-based", "settings": "Platelet, pre-treated, dihydrochloride", "description": "(c) Change of the shape of blood platelets induced by serotonin. The addition of serontonin to rat blood platelets causes a change in the shape which is measured by an aggregometer as maximum decrease in light transmission.\nCompund II (dihydrochloride) was tested by pre-treating the blood platelets with different concentrations of product and the activity was expressed as 50% inhibiting concentration (IC50)."}, "[5]": {"tested_on": "arteriosclerotic plaques in aorta", "assay": "Prevention of the formation of arteriosclerotic plaques in rabbits on hypercholesterolemic diet", "format": "in vivo, rabbit", "description": "Rabbits HY/CR were feeded with iperchloesterolemic diet (2% (cholesterol) for 60 days at the end of which, by planimetry after colouring aorta with Sindon Black, the extent of arteriosclerotic plaques was evaluated. […]"}, "[6]": {"tested_on": "serotonin-enhanced aggregation of dog blood platelets", "assay": "Enhancement in aggregation induced by serotonin, dog blood platelets", "format": "cell-based", "settings": "Canis lupus familiaris, Platelet, dihydrochloride, read-out: Threshold Inhibiting Concentration (TlC)", "description": "(b) Enhancement in aggregation induced by serotonin.\nThe addition of 5HT to dog blood platelets causes the aggregation of non-aggregating concentrations of adenosine diphosphate, collagen and adrenaline.\nThe effects of compound II (dihydrochloride) expressed as single concentration, were evaluated by pre-incubating the blood platelets with different concentrations of the product and expressed as Threshold Inhibiting Concentration (TlC): […]"}},
  "note": "Read-outs that look alike come from different tables or passages of the source.",
  "data": [
    {"smiles": "COc1cc(CN(C)CCN(C)CCC(c2ccccc2)c2ccccc2)cc(OC)c1OC", "note": "[Compound A, N,N'-dimethyl-N-(3,4,5-trimethoxybenyl)-N'-(3,3-diphenyl-propyl)-ethylenediamine, reference compound]", "values": [
      {"measurement": "Anti-spasmodic activity (in words)", "setting": "vascular smooth muscle", "value": "most active compound"},
      {"measurement": "Hemodynamic effects compared with Compound II (in words)", "setting": "systemic hemodynamics; dog, 1 mg/kg (four times higher dose)", "value": "Comparable effects to compound II"},
      {"measurement": "Cardiac output (in words)", "setting": "systemic hemodynamics; dog, Compound A at 1 mg/kg", "value": "decrease in cardiac output"},
      {"measurement": "Effects on peripheral vascular resistances and on arterial pressure (in words)", "setting": "systemic hemodynamics; dog, i.v. bolus 0.25 mg/kg", "value": "borderline effects"},
      {"measurement": "Systolic index", "setting": "systemic hemodynamics; dog, i.v. bolus 0.25 mg/kg, Compound A, basal 10.09±1.29 (* p<0.05)", "value": "11.11±1.49", "unit": "ml/beatsm^2"},
      {"measurement": "Heart rate", "setting": "systemic hemodynamics; dog, i.v. bolus 0.25 mg/kg", "value": "147±8", "unit": "beats/min"},
      {"measurement": "Heart index", "setting": "systemic hemodynamics; dog, i.v. bolus 0.25 mg/kg", "value": "1.615±0.237", "unit": "l/min/m^2"},
      {"measurement": "Total peripheral resistances", "setting": "systemic hemodynamics; dog, i.v. bolus 0.25 mg/kg", "value": "45.023±2.849", "unit": "mmHg/l/min."},
      {"measurement": "Arterial pressure, minimum", "setting": "systemic hemodynamics; dog, i.v. bolus 0.25 mg/kg", "value": "50±3", "unit": "mmHg"},
      {"measurement": "Arterial pressure, medium", "setting": "systemic hemodynamics; dog, i.v. bolus 0.25 mg/kg", "value": "71±8", "unit": "mmHg"},
      {"measurement": "Maximum ejection rate", "setting": "systemic hemodynamics; dog, i.v. bolus 0.25 mg/kg", "value": "135.58±17.55", "unit": "ml/sec/m^2"},
      {"measurement": "Arterial pressure, maximum", "setting": "systemic hemodynamics; dog, i.v. bolus 0.25 mg/kg", "value": 98, "unit": "mmHg"}
    ]},
    {"smiles": "COc1cc(CN(C)CCN(C)CCC(c2ccc(F)cc2)c2ccc(F)cc2)cc(OC)c1OC", "note": "[Compound II, N,N'-dimethyl-N-(3,4,5-trimethoxybenzyl)-N'-[3,3-di-(4-fluorophenyl)-propyl]-ethylenediamine]", "values": [
      {"measurement": "IC50", "setting": "[1]", "value": 0.22, "unit": "µM"},
      {"measurement": "Antagonism of serotonin effects on blood platelets and vessels (in words)", "setting": "serotonin", "value": "able to antagonize, in a specific way, the effect of serotonin on blood platelets as well as on vessels"},
      {"measurement": "Coronary vascular resistances (in words)", "setting": "coronary hemodynamics; anesthetized dogs", "value": "decrease in systemic and coronary vascular resistances"},
      {"measurement": "Arterial pressure, minimum", "setting": "coronary hemodynamics; dog, coronary hemodynamics, i.v. bolus 0.25 mg/kg, basal 103±6", "value": "87±3", "unit": "mmHg"},
      {"measurement": "Arterial pressure, medium", "setting": "coronary hemodynamics; dog, coronary hemodynamics, i.v. bolus 0.25 mg/kg, basal 116±4", "value": "102±5", "unit": "mmHg"},
      {"measurement": "Heart rate", "setting": "coronary hemodynamics; dog, coronary hemodynamics, i.v. bolus 0.25 mg/kg, basal 140±14", "value": "143±15", "unit": "beats/min"},
      {"measurement": "Arterial pressure, maximum", "setting": "coronary hemodynamics; dog, coronary hemodynamics, i.v. bolus 0.25 mg/kg, basal 145±3", "value": "142±5", "unit": "mmHg"},
      {"measurement": "Average coronary resistances", "setting": "coronary hemodynamics; dog, i.v. bolus 0.25 mg/kg, basal 2.887±0.381, * p<0.05", "value": "1.301±0.141", "unit": "mmHg/ml/min"},
      {"measurement": "Left circumflex coronary artery flow", "setting": "coronary hemodynamics; dog, i.v. bolus 0.25 mg/kg, basal 41.3±3.7, * p<0.05", "value": "101.6 ± 10.8", "unit": "mL/min"},
      {"measurement": "IC50", "setting": "[2]", "value": 0.16, "unit": "µM"},
      {"measurement": "Cardiac output (in words)", "setting": "systemic hemodynamics; anesthetized dogs", "value": "increase in cardiac output"},
      {"measurement": "Heart rate (in words)", "setting": "systemic hemodynamics; anesthetized dogs", "value": "without a contemporaneous increase in heart rate"},
      {"measurement": "Systemic vascular resistances (in words)", "setting": "systemic hemodynamics; anesthetized dogs", "value": "decrease in systemic and coronary vascular resistances"},
      {"measurement": "Systolic index", "setting": "systemic hemodynamics; dog, i.v. bolus 0.25 mg/kg, Compound II, basal 9.51±1.24 (* p<0.05)", "value": "13.39±1.00", "unit": "ml/beats/m^2"},
      {"measurement": "Heart rate", "setting": "systemic hemodynamics; dog, i.v. bolus 0.25 mg/kg", "value": "156±12", "unit": "beats/min"},
      {"measurement": "Heart index", "setting": "systemic hemodynamics; dog, i.v. bolus 0.25 mg/kg", "value": "2.088±0.240", "unit": "l/min/m^2"},
      {"measurement": "Total peripheral resistances", "setting": "systemic hemodynamics; dog, i.v. bolus 0.25 mg/kg", "value": "44.366±4.200", "unit": "mmHg/l/min."},
      {"measurement": "Arterial pressure, minimum", "setting": "systemic hemodynamics; dog, i.v. bolus 0.25 mg/kg", "value": "72±2", "unit": "mmHg"},
      {"measurement": "Arterial pressure, medium", "setting": "systemic hemodynamics; dog, i.v. bolus 0.25 mg/kg", "value": "89±3", "unit": "mmHg"},
      {"measurement": "Maximum ejection rate", "setting": "systemic hemodynamics; dog, i.v. bolus 0.25 mg/kg", "value": "174.77±10.27", "unit": "ml/sec/m^2"},
      {"measurement": "Arterial pressure, maximum", "setting": "systemic hemodynamics; dog, i.v. bolus 0.25 mg/kg", "value": "130±6", "unit": "mmHg"},
      {"measurement": "Arterial smooth muscle cell proliferation (in words)", "setting": "[3]", "value": "inhibit arterial smooth muscle cell proliferation"},
      {"measurement": "Inhibition of cell proliferation (in words)", "setting": "[3]; 5 μM, 24, 48 and 72 hours", "value": "inhibited meaningfully cell proliferation"},
      {"measurement": "IC50", "setting": "[3]; rat aorta smooth muscle cells, 24, 48 and 72 hours (time of the IC50 not stated)", "value": 10, "unit": "µM"},
      {"measurement": "IC50", "setting": "[4]", "value": "8.35 ± 1.35", "unit": "µM"},
      {"measurement": "Reduction of the area of plaques in aorta", "setting": "[5]; rabbit, 1 mg/kg s.c. twice a day, 60 days", "value": 40, "unit": "%"},
      {"measurement": "Reduction of the formation / area of plaques in aorta", "setting": "[5]; rabbit, 3 mg/kg s.c. twice a day, 60 days", "value": 60, "unit": "%"},
      {"measurement": "Prevention of the formation of arteriosclerotic plaques (in words)", "setting": "[5]; rabbits on hypercholesterolemic diet", "value": "able to prevent the formation of arteriosclerotic plaques"},
      {"measurement": "minimal effective concentration", "setting": "[6]; adenosine diphosphate + serotonin", "value": "37 ± 20", "unit": "µM"},
      {"measurement": "minimal effective concentration", "setting": "[6]; adrenaline + serotonin", "value": "11 ± 5.4", "unit": "µM"},
      {"measurement": "minimal effective concentration", "setting": "[6]; collagen + serotonin", "value": "5.6 ± 4", "unit": "µM"}
    ]}
  ]
}
